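Results reflect a 48-hour exposure of cells in 96-well plates to compound at five concentrations. TGI marks complete inhibition of growth.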

Among the test systems are HCC-2998 colon; SN12C renal; MDA-MB-435; DU-145 prostate; NCI-H23 lung; CAKI-1 renal; COLO 205 colon; OVCAR-4 ovarian; SR leukemia; OVCAR-5 ovarian; NCI-H226 lung.
Holding throughout (experiment): growth of human tumour cells (NCI), 48 h

With `COP(=O)(O)C(N)Cc1c[nH]c2ccccc12` (stereo not drawn), the TGI in the experiment with HCC-2998 colon, with SN12C renal, with MDA-MB-435, in the experiment with DU-145 prostate, with NCI-H23 lung and with CAKI-1 renal was above 100 µM in each case. Also, the TGI in the experiment with COLO 205 colon, in the experiment with OVCAR-4 ovarian, in the experiment on SR leukemia, in the experiment with OVCAR-5 ovarian and in the experiment with NCI-H226 lung was above 100 µM each time.

Turning to `COC1(c2cccs2)c2ccccc2C(OC)(c2cccs2)c2ccccc21` (stereo not drawn), the TGI with HCC-2998 colon, in the experiment with SN12C renal, in the experiment on MDA-MB-435, with DU-145 prostate, with NCI-H23 lung and in the experiment on CAKI-1 renal was above 100 µM throughout. Also, the TGI with COLO 205 colon, in the experiment with OVCAR-4 ovarian, in the experiment with SR leukemia, with OVCAR-5 ovarian and with NCI-H226 lung was above 100 µM throughout.

`Cc1cc(N2CCCC2)c([N+](=O)[O-])cc1[N+](=O)[O-]`: the TGI with HCC-2998 colon, in the experiment with SN12C renal, with MDA-MB-435, with DU-145 prostate, with NCI-H23 lung and in the experiment with CAKI-1 renal was above 100 µM in each case. The TGI in the experiment on COLO 205 colon, in the experiment on OVCAR-4 ovarian, in the experiment on SR leukemia and with NCI-H226 lung was above 100 µM throughout.

For the compound `COC(=O)C1=CON2C3CC4CC(C3)CC(C4)C12C` (stereo not drawn), the TGI with HCC-2998 colon, in the experiment on SN12C renal, in the experiment on MDA-MB-435, with DU-145 prostate, with NCI-H23 lung and in the experiment on CAKI-1 renal was above 100 µM throughout. The TGI in the experiment on COLO 205 colon, in the experiment with OVCAR-4 ovarian, in the experiment with SR leukemia, with OVCAR-5 ovarian and in the experiment with NCI-H226 lung was above 100 µM each time.

As to `c1csc(-c2ccsc2-c2ccsc2)c1`, the TGI in the experiment on HCC-2998 colon, in the experiment on SN12C renal, with MDA-MB-435, in the experiment on DU-145 prostate, in the experiment with NCI-H23 lung and with CAKI-1 renal was above 100 µM in each case. The TGI in the experiment with COLO 205 colon, in the experiment on OVCAR-4 ovarian, with SR leukemia and with OVCAR-5 ovarian was above 100 µM each time.

On to `COc1cc2c(cc1OC)[C@@](C)(C(O)C(O)C(C)(C)O)NCC2` (stereo partly drawn), for which the TGI in the experiment on SN12C renal, with MDA-MB-435, in the experiment with DU-145 prostate, in the experiment with NCI-H23 lung, with CAKI-1 renal and in the experiment on COLO 205 colon was above 100 µM throughout. Moreover, the TGI with OVCAR-4 ovarian, with SR leukemia, in the experiment with OVCAR-5 ovarian and with NCI-H226 lung was above 100 µM each time.

Take `CC12CCC(C(=Nc3cc(C(F)(F)F)cc(C(F)(F)F)c3)C1=O)C2(C)C` (stereo not drawn): the TGI was 73.3 µM in the experiment on HCC-2998 colon; above 100 µM in the experiment with MDA-MB-435; above 100 µM in the experiment on DU-145 prostate; above 100 µM in the experiment on NCI-H23 lung; above 100 µM in the experiment on CAKI-1 renal; 34.1 µM in the experiment on COLO 205 colon. In addition, the TGI in the experiment with OVCAR-4 ovarian was above 100 µM; with SR leukemia, 46.4 µM; with OVCAR-5 ovarian, above 100 µM; with NCI-H226 lung, above 100 µM.

As for `COC(=O)NC(Cc1ccccc1)NC(C)=O` (stereo not drawn), the TGI in the experiment on HCC-2998 colon, in the experiment with SN12C renal, in the experiment with MDA-MB-435, in the experiment on DU-145 prostate, with NCI-H23 lung and in the experiment with CAKI-1 renal was above 100 µM throughout. Further, the TGI with COLO 205 colon, in the experiment on OVCAR-4 ovarian, with SR leukemia and with OVCAR-5 ovarian was above 100 µM throughout.

`O=C(O)CNC(=O)c1ccc2cc(C(=O)N3CC(CCl)c4ccc([N+](=O)[O-])cc43)[nH]c2c1` (stereo not drawn): the TGI in the experiment with SN12C renal, in the experiment on MDA-MB-435, in the experiment with DU-145 prostate, in the experiment on NCI-H23 lung, with CAKI-1 renal and in the experiment with COLO 205 colon was above 100 µM each time. Also, the TGI in the experiment with OVCAR-4 ovarian, with SR leukemia, in the experiment on OVCAR-5 ovarian and in the experiment with NCI-H226 lung was above 100 µM throughout.

Take `Cc1ccc2c(C(=O)c3c(C)n(CCN4CCOCC4)c4ccccc34)cccc2c1`: the TGI in the experiment with SN12C renal is above 100 µM; in the experiment on MDA-MB-435 it was 5.42 µM; in the experiment on DU-145 prostate, 94.3 µM; in the experiment on NCI-H23 lung, above 100 µM; in the experiment with CAKI-1 renal, above 100 µM; with OVCAR-4 ovarian it was 61.1 µM. Besides, the TGI in the experiment with SR leukemia was above 100 µM; in the experiment with OVCAR-5 ovarian, 96.6 µM; in the experiment with NCI-H226 lung it was 19.9 µM.

For the compound `NC(=Nc1ccccc1)c1ccccc1N`, the TGI in the experiment with HCC-2998 colon, in the experiment with MDA-MB-435, in the experiment with DU-145 prostate, in the experiment on NCI-H23 lung, in the experiment with CAKI-1 renal and with COLO 205 colon was above 100 µM throughout. Moreover, the TGI in the experiment on OVCAR-4 ovarian, in the experiment with SR leukemia, with OVCAR-5 ovarian and in the experiment on NCI-H226 lung was above 100 µM throughout.

Regarding `N=c1oc2ccccc2cc1-c1nc2ccccc2c(=O)[nH]1`, the TGI in the experiment with HCC-2998 colon, with SN12C renal, in the experiment with MDA-MB-435, in the experiment with DU-145 prostate, in the experiment on CAKI-1 renal and in the experiment with COLO 205 colon was above 100 µM throughout. For the same compound, the TGI with OVCAR-4 ovarian, in the experiment on SR leukemia, in the experiment on OVCAR-5 ovarian and in the experiment with NCI-H226 lung was above 100 µM throughout.

Consider `Cc1ccc(S(=O)(=O)N/N=C2/CCC(C(C)(C)C)CC2Br)cc1` (stereo not drawn), for which the TGI was 32.4 µM with SN12C renal; 51.8 µM in the experiment with MDA-MB-435; above 100 µM in the experiment with DU-145 prostate; above 100 µM in the experiment on NCI-H23 lung; 69.1 µM in the experiment on CAKI-1 renal; above 100 µM in the experiment with COLO 205 colon. In addition, the TGI is 33.6 µM in the experiment with OVCAR-4 ovarian, above 100 µM in the experiment on SR leukemia, 43.6 µM in the experiment on OVCAR-5 ovarian and 34 µM with NCI-H226 lung.

As to `O=C(C(Cl)=C(N1CCCCC1)N1CCCCC1)C(Cl)Cl`, the TGI in the experiment on HCC-2998 colon, in the experiment with SN12C renal, with MDA-MB-435, in the experiment with DU-145 prostate, with NCI-H23 lung and with CAKI-1 renal was above 100 µM each time. For the same compound, the TGI in the experiment with COLO 205 colon, with OVCAR-4 ovarian, in the experiment with SR leukemia and with NCI-H226 lung was above 100 µM each time.

For the compound `CCOC(=O)C(NC(=O)CC)(Nc1ccc(F)c(Cl)c1)C(F)(F)F` (stereo not drawn), the TGI in the experiment on HCC-2998 colon, in the experiment on SN12C renal, in the experiment with MDA-MB-435, in the experiment with DU-145 prostate, with CAKI-1 renal and in the experiment on COLO 205 colon was above 100 µM throughout. Further, the TGI in the experiment with OVCAR-4 ovarian, in the experiment with SR leukemia, with OVCAR-5 ovarian and in the experiment with NCI-H226 lung was above 100 µM each time.

On to `COC1=C2C=[N+](C)C3C(=C2C=CC1OC)Cc1cc2c(cc13)OCO2` (stereo not drawn), for which the TGI in the experiment with SN12C renal was determined as 18 µM; in the experiment on MDA-MB-435, 33.3 µM; with DU-145 prostate, 27.5 µM; in the experiment on NCI-H23 lung, 30.6 µM; with CAKI-1 renal it was 29.3 µM; with COLO 205 colon it was 18.4 µM. Further, the TGI in the experiment on OVCAR-4 ovarian came out at 22.3 µM; in the experiment with SR leukemia, 42 µM; with OVCAR-5 ovarian, 32.1 µM; in the experiment with NCI-H226 lung, 38.4 µM.

Take `CNC(=S)NNc1ncnc2c1ncn2-c1ccc(C)cc1`: the TGI with SN12C renal, in the experiment with MDA-MB-435, with DU-145 prostate, in the experiment on NCI-H23 lung, in the experiment with CAKI-1 renal and with COLO 205 colon was above 100 µM in each case. The TGI in the experiment on OVCAR-4 ovarian, in the experiment on SR leukemia, in the experiment on OVCAR-5 ovarian and in the experiment on NCI-H226 lung was above 100 µM throughout.

For the compound `COC(=O)c1ccccc1C1=C([N+](=O)[O-])C(c2ccccc2)C(C#N)=C(N)O1` (stereo not drawn), the TGI in the experiment on HCC-2998 colon, in the experiment on SN12C renal, with MDA-MB-435, in the experiment on DU-145 prostate, in the experiment on NCI-H23 lung and in the experiment with COLO 205 colon was above 100 µM each time. Besides, the TGI with SR leukemia, in the experiment with OVCAR-5 ovarian and with NCI-H226 lung was above 100 µM in each case.

For `Cc1c2ccccc2c(C)n2c1nc1ccccc12`, the TGI in the experiment on HCC-2998 colon is 22.7 µM; with SN12C renal, 30.9 µM; in the experiment on MDA-MB-435 it was 19.1 µM; with DU-145 prostate it was above 100 µM; with NCI-H23 lung, 30.7 µM; in the experiment with SR leukemia it was above 100 µM. Also, the figures for the TGI in the experiment on OVCAR-5 ovarian and in the experiment on NCI-H226 lung were 48.3 µM and 37.8 µM, respectively.

As for `COc1ccc(CNc2nc3cc(C(F)(F)F)ccc3nc2-c2ccccc2)cc1OC`, the TGI is 45.9 µM with HCC-2998 colon; above 100 µM with MDA-MB-435; above 100 µM in the experiment on DU-145 prostate; above 100 µM with NCI-H23 lung; 75.4 µM in the experiment with CAKI-1 renal; above 100 µM in the experiment on COLO 205 colon. Also, the TGI in the experiment with OVCAR-4 ovarian, with SR leukemia and in the experiment with OVCAR-5 ovarian was above 100 µM throughout.
